From patent US10342781B2, “Diazole amides” (CHEMOCENTRYX, INC., priority 2012, dated 2019)

molecular target: T1, CCR1 (Homo sapiens, UniProt P32246); assay: Chemotaxis (migration) assay; format: cell-based; details: THP-1 or monocyte cells, CCR1 chemokine ligand (MIP-1α, CCL15/Leukotactin), 1-2 hours at 37° C.
T1 construct: host or cells: THP-1 myelomonocytic leukemia cells (or freshly isolated monocytes)
T1 sequence (P32246 1-355): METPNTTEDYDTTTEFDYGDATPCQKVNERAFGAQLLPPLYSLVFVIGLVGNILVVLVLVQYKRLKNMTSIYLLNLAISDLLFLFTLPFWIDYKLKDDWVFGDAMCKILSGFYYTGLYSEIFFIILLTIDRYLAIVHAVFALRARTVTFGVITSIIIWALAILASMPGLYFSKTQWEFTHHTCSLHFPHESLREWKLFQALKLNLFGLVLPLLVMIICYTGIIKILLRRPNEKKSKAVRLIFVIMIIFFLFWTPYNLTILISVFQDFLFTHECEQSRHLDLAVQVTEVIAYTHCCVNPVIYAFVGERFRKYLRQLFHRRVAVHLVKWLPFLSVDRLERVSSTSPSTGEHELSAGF
Method: THP-1 cells were obtained from ATCC (TIB-202) and cultured as a suspension in RPMI-1640 medium supplemented with 2 mM L-glutamine, 1.5 g/L sodium bicarbonate, 4.5 g/L glucose, 10 mM HEPES, 1 mM sodium pyruvate, 0.05% 2-mercaptoethanol and 10% FBS. Cells were grown under 5% CO2/95% air, 100% humidity at 37° C. and subcultured twice weekly at 1:5 (cells were cultured at a density range of 2×10^5 to 2×10^6 cells/mL) and harvested at 1×10^6 cells/mL. THP-1 cells express CCR1 and can be used in CCR1 binding and functional assays.
Chemotaxis assays were performed using 5 μm pore polycarbonate, polyvinylpyrrolidone-coated filters in 96-well chemotaxis chambers (Neuroprobe; Gaithersburg, Md.) using chemotaxis buffer (Hank's balanced salt solution (HBSS) and 1% FBS). CCR1 chemokine ligands (i.e., MIP-1α, CCL15/Leukotactin; R&D Systems; Minneapolis, Minn.) are use to evaluate compound mediated inhibition of CCR1 mediated migration. Other chemokines (i.e., SDF-1α; R&D Systems; Minneapolis, Minn.) are used as specificity controls. The lower chamber was loaded with 29 μl of chemokine (i.e., 0.1 nM CCL15/Leukotactin) and varying amounts of compound, the top chamber contained 100,000 THP-1 or monocyte cells in 20 μl. The chambers were incubated 1-2 hours at 37° C., and the number of cells in the lower chamber quantified either by direct cell counts in five high powered fields per well or by the CyQuant assay (Molecular Probes), a fluorescent dye method that measures nucleic acid content and microscopic observation.
One of the primary functions of chemokines is their ability to mediate the migration of chemokine receptor-expressing cells, such as white blood cells. To confirm that a compound of interest inhibited not only CCR1 specific binding and signaling (at least as determined by calcium mobilization assays), but also CCR1 mediated migration, a chemotaxis assay was employed. THP-1 myelomonocytic leukemia cells, which resemble monocytes, as wells as freshly isolated monocytes, were used as targets for chemoattraction by CCR1 chemokine ligands (i.e., MIP-1α, CCL15/leukotactin). Cells were placed in the top compartment of a microwell migration chamber, while MIP-1α (or other potent CCR1 chemokine ligand) and increasing concentrations of a compound of interest was loaded in the lower chamber. […] To ascertain a compound of interest's affinity for CCR1 as well as to confirm its ability to inhibit CCR1 mediated cell migration, inhibitory activity was titered over a 1×10^−10 to 1×10^−4 M range of compound concentrations in this chemotaxis assay. In this assay, the amount of compound was varied; while cell number and chemokine agonist concentrations were held constant. After the chemotaxis chambers were incubated 1-2 hours at 37° C., the responding cells in the lower chamber were quantified by labeling with the CyQuant assay (Molecular Probes), a fluorescent dye method that measures nucleic acid content, and by measuring with a Spectrafluor Plus (Tecan). The computer program Prism from GraphPad, Inc. (San Diego, Ca) was used to calculate IC50 values. IC50 values are those compound concentrations required to inhibit the number of cells responding to a CCR1 agonist by 50%.

Compound | IC50
Cc1c(Cl)c(C(F)(F)F)nn1C(C)(C)C(=O)Nc1cnn(-c2ccc(F)cc2)c1C(C)C [1.007] | 100 to 10000 nM
Cc1nc(C(F)(F)F)nn1C(C)C(=O)Nc1cnn(-c2ccc(F)cc2)c1C(C)C (stereo not drawn) [1.008] | 100 to 10000 nM
Cc1nc(C(F)(F)F)cn1C(C)C(=O)Nc1cnn(-c2ccc(F)cc2)c1C(C)(C)C (stereo not drawn) [1.013] | 100 to 10000 nM
Cc1c(Cl)c(C(F)(F)F)nn1C(CCCCO)C(=O)Nc1cnn(-c2ccc(F)cc2)c1C(C)C (stereo not drawn) [1.014] | 100 to 10000 nM
Cc1c(NC(=O)Cn2nc(C(F)(F)F)c(Cl)c2C)ncn1-c1ccc(F)cc1 [1.020] | 100 to 10000 nM
Cc1c(Cl)c(C(F)(F)F)nn1CC(=O)Nc1cnn(-c2ccc(F)cc2)c1-c1ccccc1 [1.021] | 100 to 10000 nM
CCc1c(NC(=O)Cn2nc(C(F)(F)F)c(Cl)c2C)cnn1-c1ccc(F)cc1 [1.023] | 100 to 10000 nM
Cc1nc(C(F)(F)F)cn1C(C)C(=O)Nc1cnn(-c2ccc(F)cc2)c1C (stereo not drawn) [1.024] | 100 to 10000 nM
Cc1c(Cl)c(C(F)(F)F)nn1CC(=O)Nc1cnn(-c2ccc(F)cc2)c1C [1.025] | 100 to 10000 nM
Cc1c(Cl)c(C(F)(F)F)nn1CC(=O)N(C)c1cnn(-c2ccc(F)cc2)c1 [1.026] | 100 to 10000 nM
Cc1c(Cl)c(C(F)(F)F)nn1CC(=O)Nc1cnn(-c2ccc(F)cc2)c1 [1.027] | 100 to 10000 nM
Cc1nc(C(F)(F)F)cn1C(C)C(=O)Nc1cnc(-c2ccc(Cl)cc2)n1C(C)C (stereo not drawn) [1.028] | 100 to 10000 nM

Other lines, results leading:

IC50 | Compound
≤ 100 nM | Cc1nc(C(F)(F)F)cn1C(C)C(=O)Nc1nnn(-c2ccc(Cl)cc2)c1C(C)C (stereo not drawn) [1.001]
100 to 10000 nM | Cc1nc(C(F)(F)F)cn1C(C)C(=O)Nc1cnn(-c2ccc(Cl)cc2)c1C1CC1 (stereo not drawn) [1.002]
100 to 10000 nM | Cc1nc(C(F)(F)F)cn1C(C)C(=O)Nc1cnn(-c2ccc(F)cc2)c1N(C)C (stereo not drawn) [1.003]
100 to 10000 nM | Cc1nc(C(F)(F)F)cn1C(C)C(=O)Nc1cnn(-c2ccc(F)cc2)c1Cl (stereo not drawn) [1.004]
100 to 10000 nM | Cc1nc(C(F)(F)F)cn1C(C)C(=O)Nc1cnn(-c2ccc(F)cc2)c1OC(C)C (stereo not drawn) [1.005]
100 to 10000 nM | CCOc1c(NC(=O)C(C)n2cc(C(F)(F)F)nc2C)cnn1-c1ccc(F)cc1 (stereo not drawn) [1.006]
≤ 100 nM | Cc1nc(C(F)(F)F)cn1C(C)C(=O)Nc1cnn(-c2ccc(F)cc2)c1C(C)C (stereo not drawn) [1.009]
≤ 100 nM | Cc1nc(C(F)(F)F)nn1C(C)C(=O)Nc1cnn(-c2ccc(Cl)cc2)c1C(C)C (stereo not drawn) [1.010]
≤ 100 nM | Cc1nc(C(F)(F)F)cn1C(C)C(=O)Nc1cnn(-c2ccc(Cl)cc2)c1C(C)C (stereo not drawn) [1.011]
≤ 100 nM | Cc1nc(C(F)(F)F)c2n1C(C(=O)Nc1cnn(-c3ccc(Cl)cc3)c1C(C)C)CCC2 (stereo not drawn) [1.012]
≤ 100 nM | Cc1nc(C(F)(F)F)cn1C(C)C(=O)Nc1cnn(-c2ccc(Cl)cc2)c1C(C)C (stereo not drawn) [1.015]
≤ 100 nM | Cc1c(Cl)c(C(F)(F)F)nn1C(C)C(=O)Nc1cnn(-c2ccc(F)cc2)c1C(C)C (stereo not drawn) [1.016]
≤ 100 nM | CCC(C(=O)Nc1cnn(-c2ccc(F)cc2)c1C(C)C)n1nc(C(F)(F)F)c(Cl)c1C (stereo not drawn) [1.017]
≤ 100 nM | Cc1nc(C(F)(F)F)cn1C(C)C(=O)Nc1cnn(-c2ccc(F)cc2)c1C(C)C (stereo not drawn) [1.018]
≤ 100 nM | CCC(C(=O)Nc1cnn(-c2ccc(F)cc2)c1C(C)C)n1cc(C(F)(F)F)nc1C (stereo not drawn) [1.019]
≤ 100 nM | Cc1c(Cl)c(C(F)(F)F)nn1CC(=O)Nc1cnn(-c2ccc(F)cc2)c1C(C)C [1.022]
≤ 100 nM | Cc1nc(C(F)(F)F)cn1[C@@H](C)C(=O)Nc1cnn(-c2ccc(Cl)cc2)c1C1CCC1 [1.029]

tested on: inflammatory cells recruited to the inflamed synovial fluid of the knee joints; assay: Rabbit model of destructive joint inflammation (rabbit LPS study); format: in vivo, Female New Zealand rabbits; details: intra-articular LPS (10 ng), dosed orally in 1% methocel 2 hours before and 4 hours after LPS, knees lavaged sixteen hours after LPS
Method: A rabbit LPS study was conducted essentially as described in Podolin, et al. J. Immunol. 169(11):6435-6444 (2002). Female New Zealand rabbits (approximately 2 kilograms) were treated intra-articularly in both knees with LPS (10 ng). The compound of interest, for example 1.016, (formulated in 1% methocel) or vehicle (1% methocel) was dosed orally at a 5 ml/kg dose volume at two times (2 hours before the intra-articular LPS injection and 4 hours after the intra-articular LPS injection). Sixteen hours after the LPS injection, knees were lavaged and cells counts were performed. Beneficial effects of treatment were determined by reduction in the number of inflammatory cells recruited to the inflamed synovial fluid of the knee joints.

Compound | reduction in the number of inflammatory cells recruited to the inflamed synovial fluid of the knee joints
Cc1c(Cl)c(C(F)(F)F)nn1C(C)C(=O)Nc1cnn(-c2ccc(F)cc2)c1C(C)C (stereo not drawn) [1.016] | significant reduction in recruited inflammatory cells
